Our source for the MIC and IC50 values is patent publication US20240166612A1, “ARYLTHIOETHER ACETAMIDE AND RELATED COMPOUNDS AND THEIR USE IN TREATING MEDICAL CONDITIONS” (X-Biotix Therapeutics, Inc., priority 2021, published 2024).

Values after ≈ are worked out from the molar mass of the structure shown.

Assay [1] has as its system Wild-type P. aeruginosa PAO1. Nature of the assay: Broth microdilution MIC, wild-type P. aeruginosa PAO1. It counts as cell-based. The conditions noted are these: Pseudomonas aeruginosa; wild-type P. aeruginosa PAO1, 37° C., 18 h; read-out: PAO1 WT MIC.
Another assay has as its system P. aeruginosa PAO397. The experiment in a line: Broth microdilution MIC, P. aeruginosa PAO397. It counts as cell-based. The conditions noted are these: Pseudomonas aeruginosa, PAO397, 18 h, read-out: PAO397 KO MIC.
Assay [2] deals with T1, recombinant LpxA enzyme (P. aeruginosa) (Pseudomonas aeruginosa, UniProt Q9X6P4).
T1 sequence (Q9X6P4 1-258): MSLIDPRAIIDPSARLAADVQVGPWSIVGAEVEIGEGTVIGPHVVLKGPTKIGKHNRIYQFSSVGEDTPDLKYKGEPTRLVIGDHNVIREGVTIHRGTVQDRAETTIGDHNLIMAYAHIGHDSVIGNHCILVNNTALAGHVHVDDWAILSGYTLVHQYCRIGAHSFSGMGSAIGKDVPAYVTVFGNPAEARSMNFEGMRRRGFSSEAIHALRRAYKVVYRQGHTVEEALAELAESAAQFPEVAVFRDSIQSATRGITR
Nature of the assay: LpxA in vitro substrate acylation assay with RapidFire MS analysis (P. aeruginosa). It counts as biochemical. To be noted: P. aeruginosa enzyme 0.5 nM, PaACP-C10, 30 min.

In assay [3] the test system is E. coli JW0452-3 (BW25113 JacrA::kan). Nature of the assay: Broth microdilution MIC, E. coli JW0452-3. To be noted: Escherichia coli, BW25113, 18 h, read-out: E. coli KO MIC. It counts as cell-based. As for the experimental part: Exemplary compounds from the above Examples were tested to determine their minimum inhibitory concentration (MIC) for exemplary strains of Escherichia and Pseudomonas bacteria using broth microdilution methods. Assay procedures and results are described below.
Broth microdilution assays were conducted according to Clinical and Laboratory Standards Institute guidelines (CLSI, M07-A^11: Clinical and Laboratory Standards Institute. Methods for Dilution Antimicrobial Susceptibility Tests for Bacteria that Grow Aerobically; Approved Standard-11th Edition. Wayne, PA: CLSI, 2018). Briefly, bacterial suspensions were adjusted to a density equivalent to a 0.5 McFarland standard and diluted in sterile, cation-adjusted Mueller-Hinton broth (Beckton Dickinson) to yield a final inoculum between 2×10^5 and 8×10^5 colony-forming units (CFU)/mL. An inoculum volume of 98 μL was added to wells containing 2 μL of 2-fold serial dilutions of drug (prepared in DMSO). All inoculated microdilution trays were incubated in ambient air at 37° C. for 18 h. […] Performance of the assay was monitored by the use of laboratory quality-control strains (S. aureus ATCC 29213 and P. aeruginosa ATCC 27853) and levofloxacin, a compound with a defined MIC spectrum, in accordance with CLSI guidelines (CLSI, M100Ed29: Clinical and Laboratory Standards Institute. Performance Standards for Antimicrobial Susceptibility Testing, 29th Edition. Wayne, PA: CLSI, 2018).
Multiple enterobacteriaceae strains were tested, including both wild-type strains and multi-drug resistance pump deficient mutants. Specific strains tested included the following: • Wild-type P. aeruginosa PAO1, • P. aeruginosa PAO1 ΔmexABoprM—Disabled multi-drug efflux system Δ(MexAB-OprM), • P. aeruginosa PAO397—PAO1Δ(mexAB-oprM) Δ(mexCD-oprJ) Δ(mexEF-oprN) Δ(mexJK) Δ(mexXY) ΔopmH, • P. aeruginosa LESB58—Clinical isolate; colistin-resistant, isolated in the United Kingdom in 1988 from a patient with cystic fibrosis • E. coli JW0452-3 (BW25113 JacrA::kan)—Disabled multi-drug efflux system (AcrAB-TolC). […]

For assay [4], the target named is T2, recombinant LpxD enzyme (P. aeruginosa) (Pseudomonas aeruginosa, UniProt Q9HXY6).
T2 sequence (Q9HXY6 1-353): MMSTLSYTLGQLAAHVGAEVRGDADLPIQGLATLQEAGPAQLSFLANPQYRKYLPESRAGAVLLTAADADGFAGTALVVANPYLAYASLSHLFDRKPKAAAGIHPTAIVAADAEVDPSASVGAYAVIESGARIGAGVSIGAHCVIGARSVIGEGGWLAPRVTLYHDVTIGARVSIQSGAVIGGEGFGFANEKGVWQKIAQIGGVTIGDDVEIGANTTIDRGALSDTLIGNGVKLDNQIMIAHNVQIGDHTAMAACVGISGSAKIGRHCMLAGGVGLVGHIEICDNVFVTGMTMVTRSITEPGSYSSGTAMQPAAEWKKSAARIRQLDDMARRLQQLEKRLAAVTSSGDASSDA
Nature of the assay: LpxD in vitro substrate acylation assay with RapidFire MS analysis (P. aeruginosa). To be noted: P. aeruginosa enzyme 10 nM, EcACP-C10, 120 min. It counts as biochemical. On the procedure:
Exemplary compounds from the above Examples were tested for ability to inhibit LpxD activity using an in vitro substrate acylation assay with RapidFire™ MS analysis. Assay procedures and results are described below.
Reactions were carried out in a final volume of 30 μL with 25 mM HEPES (pH 7.3), 150 mM NaCl, 2 mM DTT, 0.01% BSA, 5 μM UDP-3-O[R-3-Hydroxymyristoyl]-glucosamine (produced at Charles River according to literature procedures, and partially purified at Evotec), 10 nM recombinant LpxD enzyme (P. aeruginosa or E. coli, produced at Evotec), 1 μM decanoyl E. coli acyl-carrier protein (EcACP-C10, produced at Evotec), and 1% DMSO containing test compound. After 120 min incubation at room temperature, reactions were stopped by addition of 30 μL of 10% TCA in water.
(§1) Samples were centrifuged (4350 rpm, 4° C., 5 min), and then subjected to RapidFire™ MS analysis on an Agilent RapidFire 300 coupled to an Agilent 6460 triple-quadrupole mass spectrometer. Analytes were retained on a C4 (type A) cartridge using the following solvents and flow rates: • Pump 1—H2O with 5 mM NH4OAc at 2.0 mL/min, • Pump 2—MeOH/H2O (90/10) at 1.5 mL/min, • Pump 3—MeOH/H2O (90/10) at 0.5 mL/min, and • Pump 4—ACN (organic)/H2O (aqueous). Substrate and product of the reaction were detected in negative mode ESI-MS/MS by MRM (multiple reaction monitoring) of transitions 790.3/385.0 (UDP-3-O[R-3-Hydroxymyristoyl]-glucosamine substrate) and 960.4/385.0 (UDP-3-O—[R-3-Hydroxymyristoyl]-N—[R-3-hydroxydecanoyl]-glucosamine product).
For IC50 determinations, peak areas of the substrate and product were compared to compute the proportion of product formed by the LpxD enzyme at each compound concentration. The fractional activity was converted to percentage inhibition and plotted against compound concentration in Evotec's proprietary platform Aplus and fit using a four-parameter logistic using non-linear regression to yield the IC50 value.

In assay [5] the test system is P. aeruginosa PAO1 ΔmexABoprM. The experiment in a line: Broth microdilution MIC, P. aeruginosa PAO1 ΔmexABoprM. The conditions noted are these: Pseudomonas aeruginosa, PAO1, 18 h, read-out: PAO1 KO MIC. It counts as cell-based.
Assay [6] concerns the target recombinant LpxA enzyme (E. coli) (Escherichia coli, UniProt P0A722). Nature of the assay: LpxA in vitro substrate acylation assay with RapidFire MS analysis (E. coli). It counts as biochemical. On the procedure:
Exemplary compounds from the above Examples were tested for ability to inhibit LpxA activity using an in vitro substrate acylation assay with RapidFire™ MS analysis. Assay procedures and results are described below.
Reactions were carried out in a final volume of 30 μL with 25 mM HEPES (pH 7.3), 150 mM NaCl, 2 mM DTT, 0.01% BSA, 5 μM UDP-GlcNac, recombinant LpxA enzyme (0.5 nM P. aeruginosa or 1.0 nM E. coli, both produced at Evotec), 0.5 μM acyl-transfer reagent (decanoyl P. aeruginosa acyl-carrier protein [PaACP-C10] or myristoyl E. coli acyl-carrier protein [EcACP-C1-4], both produced at Evotec), and 1% DMSO containing test compound. After 30 min incubation at room temperature, reactions were stopped by addition of 30 μL of 10% TCA in water.
as §1, with “606.0/385.0 (UDP-GlcNAc” for “790.3/385.0 (UDP-3-O[R-3-Hydroxymyristoyl]-glucosamine”, “776.2/385.0 (UDP-3-O—(R-3-hydroxydecanoyl)-GlcNAc product, for P. aeruginosa LpxA assay) or 832.2/385.0 (UDP-3-O—(R-3-hydroxymyristoyl)-GlcNAc product, for E. coli LpxA assay).” for “960.4/385.0 (UDP-3-O—[R-3-Hydroxymyristoyl]-N—[R-3-hydroxydecanoyl]-glucosamine product).”
For IC50 determinations, peak areas of the substrate and product were compared to compute the proportion of product formed by the LpxA enzyme at each compound concentration.

recombinant LpxA enzyme (E. coli), sequence (P0A722 whole entry): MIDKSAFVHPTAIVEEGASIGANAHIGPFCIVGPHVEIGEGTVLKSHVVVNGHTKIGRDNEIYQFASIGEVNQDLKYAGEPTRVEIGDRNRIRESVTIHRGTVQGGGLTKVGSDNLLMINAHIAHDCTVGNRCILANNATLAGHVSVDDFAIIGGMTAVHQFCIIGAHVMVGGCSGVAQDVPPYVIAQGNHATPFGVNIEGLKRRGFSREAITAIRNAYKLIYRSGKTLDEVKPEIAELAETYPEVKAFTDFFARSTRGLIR

As to `N#Cc1ccc(CN(CC(=O)NC2CNC2)C(=O)CSc2ccccc2Cl)cc1` [compound 5], the MIC in assay [1] was over 64 µg/mL; with P. aeruginosa PAO397 it was 16 to 64 µg/mL (≈ 37.3 to 149 µM); in assay [3], 16 to 64 µg/mL (≈ 37.3 to 149 µM). The concentration for half-maximal inhibition (IC50) in assay [2] was 100 to 1000 nM; in assay [4] it was over 20 µM.

With `CS(=O)(=O)Nc1ccc(CN(Cc2nnc(N)o2)C(=O)CSc2ccccc2Cl)cc1` [compound 46], the minimal inhibitory concentration (MIC) is over 64 µg/mL in assay [1], 1 to 16 µg/mL (≈ 2.07 to 33.2 µM) in the assay with P. aeruginosa PAO397, over 64 µg/mL in assay [5] and 16 to 64 µg/mL (≈ 33.2 to 133 µM) in assay [3]. Moreover, the IC50 in assay [2] was 20 to 100 nM; in assay [6], over 20 µM.

For the compound `N#Cc1ccc(CN(Cc2nnc(N)o2)C(=O)CSc2cc(-c3c[nH]cn3)ccc2Cl)c(F)c1` [Compound No. 62, N-[(5-Amino-1,3,4-oxadiazol-2-yl)methyl]-2-[2-chloro-5-(1H-imidazol-4-yl)phenyl]sulfanyl-N-[(4-cyano-2-fluoro-phenyl)methyl]acetamide], the MIC is over 64 µg/mL in assay [1], 1 to 16 µg/mL (≈ 2.01 to 32.1 µM) in the assay with P. aeruginosa PAO397 and 16 to 64 µg/mL (≈ 32.1 to 129 µM) in assay [3]. For the same compound, the IC50 in assay [2] lay within 100 to 1000 nM; in assay [6] it was 5 to 20 µM.
